Laboratory results taken from patent US11498903B2 (BRISTOL-MYERS SQUIBB COMPANY, priority 2017, dated 2022).
Read-outs that look alike come from different tables or passages of the source.

Target: T1, human APJ receptor (Homo sapiens, UniProt P35414)
T1 construct: expressed in transfected cells
T1 sequence (P35414 1-380): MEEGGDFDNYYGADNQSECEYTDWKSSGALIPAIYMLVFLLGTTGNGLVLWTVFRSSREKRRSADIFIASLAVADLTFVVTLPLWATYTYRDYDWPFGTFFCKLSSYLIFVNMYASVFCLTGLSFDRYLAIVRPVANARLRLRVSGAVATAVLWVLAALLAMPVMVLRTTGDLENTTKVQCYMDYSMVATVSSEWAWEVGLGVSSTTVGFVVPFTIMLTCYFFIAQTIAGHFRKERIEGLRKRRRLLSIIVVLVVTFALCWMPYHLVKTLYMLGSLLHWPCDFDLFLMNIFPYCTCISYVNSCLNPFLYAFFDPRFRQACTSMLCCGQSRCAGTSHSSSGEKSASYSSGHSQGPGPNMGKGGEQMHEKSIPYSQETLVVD
Assay: Intracellular cAMP accumulation assay (APJ hcAMP, HTRF)
Assay type: cell-based
Details: HEK293 cells stably expressing human APJ receptor
Outline: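 HEK293 cells stably expressing human APJ, 5,000/well, incubated 30 min at room temperature with compound plus […] and 2 μM forskolin. cAMP read by HTRF against a cAMP standard curve; EC50 from variable-slope sigmoidal fit, Ymax as % of (Pyr1)apelin-13 inhibition.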

[1] = Table 1, inhibition of forskolin-mediated cAMP production, read-out: APJ hcAMP EC50
[2] = Table 2, read-out: APJ cAMP Human EC50

Row | Structure (SMILES) | EC50 [1] [nM] | EC50 [2] [nM]
1 | CCC[C@@H](NC(=O)c1ccc(-c2cccc(F)c2-c2nc3ccccc3[nH]2)c(C(=O)O)c1)c1ccccc1 [Example 55, 2′-(1H-1,3-benzodiazol-2-yl)-3′-fluoro-4-{[(1R)-1-phenylbutyl]carbamoyl}-[1,1′-biphenyl]-2-carboxylic acid] | 101 to 500 | 101 to 500
2 | COC[C@@H](NC(=O)c1ccc(-c2ccccc2-c2nc3cc(OC)ccc3[nH]2)c(C(=O)O)c1)c1ccccc1 [Example 64, 4-{[(1S)-2-methoxy-1-phenylethyl]carbamoyl}-2′-(5-methoxy-1H-1,3-benzodiazol-2-yl)-[1,1′-biphenyl]-2-carboxylic acid] | < 10 | < 10
3 | COC[C@@H](NC(=O)c1ccc(-c2ccccc2-c2nc3ccccc3[nH]2)c(C(=O)O)c1)c1ccccc1 [Example 66, 2′-(1H-1,3-benzodiazol-2-yl)-4-{[(1S)-2-methoxy-1-phenylethyl]carbamoyl}-[1,1′-biphenyl]-2-carboxylic acid] | 10 to 100 | 10 to 100
4 | COC[C@@H](NC(=O)c1ccc(-c2cc(Cl)ccc2-c2nc3ccccc3[nH]2)c(C(=O)O)c1)c1ccccc1 [Example 69, 2′-(1H-1,3-benzodiazol-2-yl)-5′-chloro-4-{[(1S)-2-methoxy-1-phenylethyl]carbamoyl}-[1,1′-biphenyl]-2-carboxylic acid] | < 10 | < 10
5 | COc1ccccc1[C@@H](C)NC(=O)c1ccc(-c2cc(Cl)ccc2-c2nc3ccccc3[nH]2)c(C(=O)O)c1 [Example 70, 2′-(1H-1,3-benzodiazol-2-yl)-5′-chloro-4-{[(1R)-1-(2-methoxyphenyl)ethyl]carbamoyl}-[1,1′-biphenyl]-2-carboxylic acid] | < 10 | < 10
6 | C[C@@H](NC(=O)c1ccc(-c2cc(Cl)ccc2-c2nc3ccccc3[nH]2)c(C(=O)O)c1)c1cccc(Cl)c1 [Example 72, 2′-(1H-1,3-benzodiazol-2-yl)-5′-chloro-4-{[(1R)-1-(3-chlorophenyl)ethyl]carbamoyl}-[1,1′-biphenyl]-2-carboxylic acid] | 10 to 100 | 10 to 100
7 | C[C@@H](NC(=O)c1ccc(-c2cc(Cl)ccc2-c2nc3ccccc3[nH]2)c(C(=O)O)c1)c1cccc2ccccc12 [Example 73, 2′-(1H-1,3-benzodiazol-2-yl)-5′-chloro-4-{[(1R)-1-(naphthalen-1-yl)ethyl]carbamoyl}-[1,1′-biphenyl]-2-carboxylic acid] | 10 to 100 | 10 to 100
8 | COc1cccc([C@@H](C)NC(=O)c2ccc(-c3cc(Cl)ccc3-c3nc4ccccc4[nH]3)c(C(=O)O)c2)c1 [Example 74, 2′-(1H-1,3-benzodiazol-2-yl)-5′-chloro-4-{[(1R)-1-(3-methoxyphenyl)ethyl]carbamoyl}-[1,1′-biphenyl]-2-carboxylic acid] | 10 to 100 | 10 to 100
9 | C[C@@H](NC(=O)c1ccc(-c2cc(Cl)ccc2-c2nc3ccccc3[nH]2)c(C(=O)O)c1)c1ccccc1Cl [Example 75, 2′-(1H-1,3-benzodiazol-2-yl)-5′-chloro-4-{[(1R)-1-(2-chlorophenyl)ethyl]carbamoyl}-[1,1′-biphenyl]-2-carboxylic acid] | 10 to 100 | 10 to 100
10 | C[C@@H](NC(=O)c1ccc(-c2cc(Cl)ccc2-c2nc3ccccc3[nH]2)c(C(=O)O)c1)c1ccccc1 [Example 76, 2′-(1H-1,3-benzodiazol-2-yl)-5′-chloro-4-{[(1R)-1-phenylethyl]carbamoyl}-[1,1′-biphenyl]-2-carboxylic acid] | 10 to 100 | 10 to 100
11 | COC[C@H](Cc1ccccc1)NC(=O)c1ccc(-c2cc(Cl)ccc2-c2nc3ccccc3[nH]2)c(C(=O)O)c1 [Example 78, 2′-(1H-1,3-benzodiazol-2-yl)-5′-chloro-4-{[(2S)-1-methoxy-3-phenylpropan-2-yl]carbamoyl}-[1,1′-biphenyl]-2-carboxylic acid] | 101 to 500 | 101 to 500

The remaining lines, values ahead:

Row | EC50 [1] [nM] | EC50 [2] [nM] | Structure (SMILES)
12 | 10 to 100 | 10 to 100 | CCC[C@@H](NC(=O)c1ccc(-c2ccc(Cl)cc2-c2nc3ccccc3[nH]2)c(C(=O)O)c1)c1ccccc1 [Example 54, 2′-(1H-1,3-benzodiazol-2-yl)-4′-chloro-4-{[(1R)-1-phenylbutyl]carbamoyl}-[1,1′-biphenyl]-2-carboxylic acid]
13 | < 10 | < 10 | CCC[C@@H](NC(=O)c1ccc(-c2cc(C(F)(F)F)ccc2-c2nc3cc(OC)ccc3[nH]2)c(C(=O)O)c1)c1ccccc1 [Example 56, 2′-(5-methoxy-1H-1,3-benzodiazol-2-yl)-4-{[(1R)-1-phenylbutyl]carbamoyl}-5′-(trifluoromethyl)-[1,1′-biphenyl]-2-carboxylic acid]
14 | < 10 | < 10 | CCC[C@@H](NC(=O)c1ccc(-c2ccc(Cl)cc2-c2nc3cc(OC)ccc3[nH]2)c(C(=O)O)c1)c1ccccc1 [Example 57, 4′-chloro-2′-(5-methoxy-1H-1,3-benzodiazol-2-yl)-4-{[(1R)-1-phenylbutyl]carbamoyl}-[1,1′-biphenyl]-2-carboxylic acid]
15 | < 10 | < 10 | CCC[C@@H](NC(=O)c1ccc(-c2ccccc2-c2nc3cc(OC)ccc3[nH]2)c(C(=O)O)c1)c1ccccc1 [Example 58, 2′-(5-methoxy-1H-1,3-benzodiazol-2-yl)-4-{[(1R)-1-phenylbutyl]carbamoyl}-[1,1′-biphenyl]-2-carboxylic acid]
16 | < 10 | < 10 | CCC[C@@H](NC(=O)c1ccc(-c2cc(OC)ccc2-c2nc3cc(OC)ccc3[nH]2)c(C(=O)O)c1)c1ccccc1 [Example 59, 5′-methoxy-2′-(5-methoxy-1H-1,3-benzodiazol-2-yl)-4-{[(1R)-1-phenylbutyl]carbamoyl}-[1,1′-biphenyl]-2-carboxylic acid]
17 | < 10 | < 10 | CCC[C@@H](NC(=O)c1ccc(-c2cc(C(F)(F)F)ccc2-c2nc3cc(C(C)(C)C)ccc3[nH]2)c(C(=O)O)c1)c1ccccc1 [Example 60, 2′-(5-tert-butyl-1H-1,3-benzodiazol-2-yl)-4-{[(1R)-1-phenylbutyl]carbamoyl}-5′-(trifluoromethyl)-[1,1′-biphenyl]-2-carboxylic acid]
18 | < 10 | < 10 | CCC[C@@H](NC(=O)c1ccc(-c2cc(OC)ccc2-c2nc3cc(C(C)(C)C)ccc3[nH]2)c(C(=O)O)c1)c1ccccc1 [Example 61, 2′-(5-tert-butyl-1H-1,3-benzodiazol-2-yl)-5′-methoxy-4-{[(1R)-1-phenylbutyl]carbamoyl}-[1,1′-biphenyl]-2-carboxylic acid]
19 | 10 to 100 | < 10 | CCC[C@@H](NC(=O)c1ccc(-c2ccccc2-c2nc3cc(C(C)(C)C)ccc3[nH]2)c(C(=O)O)c1)c1ccccc1 [Example 62, 2′-(5-tert-butyl-1H-1,3-benzodiazol-2-yl)-4-{[(1R)-1-phenylbutyl]carbamoyl}-[1,1′-biphenyl]-2-carboxylic acid]
20 | 10 to 100 | 10 to 100 | CCC[C@@H](NC(=O)c1ccc(-c2ccc(Cl)cc2-c2nc3cc(C(C)(C)C)ccc3[nH]2)c(C(=O)O)c1)c1ccccc1 [Example 63, 2′-(5-tert-butyl-1H-1,3-benzodiazol-2-yl)-4′-chloro-4-{[(1R)-1-phenylbutyl]carbamoyl}-[1,1′-biphenyl]-2-carboxylic acid]
21 | < 10 | < 10 | COC[C@@H](NC(=O)c1ccc(-c2ccccc2-c2nc3cc(C(C)(C)C)ccc3[nH]2)c(C(=O)O)c1)c1ccccc1 [Example 65, 2′-(5-tert-butyl-1H-1.3-benzodiazol-2-yl)-4-{[(1S)-2-methoxy-1-phenylethyl]carbamoyl}-[1,1′-biphenyl]-2-carboxylic acid]
22 | < 10 | < 10 | CCC[C@@H](NC(=O)c1cc(C(=O)O)c(-c2cc(Cl)ccc2-c2nc3cc(OC)ccc3[nH]2)cc1C)c1ccccc1 [Example 67, 5′-chloro-2′-(5-methoxy-1H-1,3-benzodiazol-2-yl)-5-methyl-4-{[(1R)-1-phenylbutyl]carbamoyl}-[1,1′-biphenyl]-2-carboxylic acid]
23 | < 10 | < 10 | CCC[C@@H](NC(=O)c1cc(C(=O)O)c(-c2cc(Cl)ccc2-c2nc3cc(C(C)(C)C)ccc3[nH]2)cc1C)c1ccccc1 [Example 68, 2,-(5-tert-butyl-1H-1,3-benzodiazol-2-yl)-5′-chloro-5-methyl-4-{[(1R)-1-phenylbutyl]carbamoyl}-[1,1′-biphenyl]-2-carboxylic acid]
24 | 10 to 100 | 10 to 100 | CCC[C@H](NC(=O)c1ccc(-c2cc(Cl)ccc2-c2nc3ccccc3[nH]2)c(C(=O)O)c1)c1ccccc1 [Example 71, 2′-(1H-1,3-benzodiazol-2-yl)-5′-chloro-4-{[(1S)-1-phenylbutyl]carbamoyl}-[1,1′-biphenyl]-2-carboxylic acid]
25 | 10 to 100 | 10 to 100 | CN(C)C[C@@H](NC(=O)c1ccc(-c2cc(Cl)ccc2-c2nc3ccccc3[nH]2)c(C(=O)O)c1)c1ccccc1 [Example 77, 2′-(1H-1,3-benzodiazol-2-yl)-5′-chloro-4-{[(1S)-2-(dimethylamino)-1-phenylethyl]carbamoyl}-[1,1′-biphenyl]-2-carboxylic acid]
